Consider 4 compounds from patent US5880128A, “Carbonyl piperazinyl and piperidinyl compounds” (Schering Corporation, priority 1996, dated 1999).

Usually IC50 stands for the midpoint of a concentration-inhibition curve.

Where only a bound is given, the exact number is not on record here.

The test concerns the target farnesyl protein transferase (FPT). Nature of the test: In vitro enzyme assay: inhibition of farnesyl protein transferase (FPT, FTase). The conditions noted are these: concentration of compound which inhibits 50% of FPT transferase. The format is biochemical, rat; human. An excerpt: 1. In vitro enzyme assays: Inhibition of farnesyl protein transferase and geranylgeranyl protein transferase.
Both farnesyl protein transferase (FPT) and geranylgeranyl protein transferase (GGPT) I are partially purified from rat brain by ammonium sulfate fractionation followed by Q-Sepharose (Pharmacia, Inc.) anion exchange chromatography essentially as described by Yokoyama et al (Yokoyama, K., et al., (1991), A protein geranylgeranyltransferase from bovine brain: Implications for protein prenylation specificity, Proc. Natl. Acad. Sci USA 88: 5302-5306, the disclosure of which is incorporated herein by reference thereto). Human farnesyl protein transferase is also expressed in E. coli, using cDNA clones encoding both the α and β subunits. The methods used are similar to those published (Omer, C. et al., (1993), Characterization of recombinant human farnesyl protein transferase: Cloning, expression, farnesyl diphosphate binding, and functional homology with yeast prenyl-protein transferases, Biochemistry 32:5167-5176). Human farnesyl protein transferase is partially-purified from the soluble protein fraction of E. coli as described above. The farnesyl protein transferase inhibitors disclosed herein may inhibit both human and rat enzyme with similar potencies. Two forms of val^12 -Ha-Ras protein are prepared as substrates for these enzymes, differing in their carboxy terminal sequence. One form terminates in cysteine-valine-leucine-serine (Ras-CVLS) the other in cystein-valine-leucine-leucine (Ras-CVLL). Ras-CVLS is a substrate for the farnesyl protein transferase while Ras-CVLL is a substrate for geranylgeranyl protein transferase I. The cDNAs encoding these proteins are constructed so that the proteins contain an amino-terminal extension of 6 histidine residues. Both proteins are expressed in Escherichia coli and purified using metal chelate affinity chromatography. The radiolabelled isoprenyl pyrophosphate substrates, [^3 H]farnesyl pyrophosphate and [^3 H]geranylgeranyl pyrophosphate, are purchased from a commercial source, such as DuPont/New England Nuclear.
Several methods for measuring farnesyl protein transferase activity are known (Reiss et al 1990, Cell 62: 81; Schaber et al 1990, J. Biol. Chem. 265: 14701; Manne et al 1990, PNAS 8: 7541; and Barbacid & Manne 1993, U.S. Pat. No. 5,185,248). […] Filter mats are washed once with 6% TCA, 2% SDS and radioactivity is measured in a Wallac 1204 Betaplate BS liquid scintillation counter. Percent inhibition is calculated relative to the DMSO vehicle control. […]
Turning to `O=C(c1ccc(Cl)cc1)C1CCN(C(=O)Cc2ccncc2)CC1`, half-maximal inhibition (IC50) required 60 µM.

`O=C(c1ccc(F)cc1)C1CCN(C(=O)Cc2ccncc2)CC1` showed an IC50 greater than 60 µM.

For the compound `O=C(c1ccccc1)C1CCN(C(=O)Cc2ccncc2)CC1`, the IC50 is greater than 60 µM. For `Cc1c(C)c(C)c(C(=O)C2CCN(C(=O)Cc3ccncc3)CC2)c(C)c1C` the value was 12.1 µM.
